pIC50: −log10 of the molar value.
Tests used:
Type in all cases: cell-based
HTT mRNA = experiment: Splicing RT-qPCR assay, HTT canonical (CJ) and alternative (AJ) junction mRNA; conditions: Homo sapiens, A673 or K562 cells, 24 hours treatment; for pIC50: decrease in CJ mRNA; for AC50: increase in AJ mRNA
Outline: (§1)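 Compound-treated A673 or K562 cells (11-point 3-fold dilution, top dose 10 uM final, DMSO ≤0.25%) were incubated for 24 h at 37° C. Lysates underwent one-step RT-qPCR for canonical and alternative-exon junction isoforms. Normalization used PPIA for A673 and GAPDH or GUSB for K562.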

MYB mRNA = experiment: Splicing RT-qPCR assay, MYB canonical (CJ) and alternative (AJ) junction mRNA; conditions: Homo sapiens, A673 or K562 cells, 24 hours treatment; for pIC50: decrease in CJ mRNA; for AC50: increase in AJ mRNA
Outline: as §1

SMN2 CJ mRNA = experiment: Gene panel canonical junction qPCR assay, SMN2; conditions: Homo sapiens, larger gene panel, read-out: SMN2 IC50 (decrease in CJ mRNA levels)
Outline: (§2)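 A673 or K562 cells treated 24 h with 11-point 3-fold dilutions (top 10 µM, ≤0.25% DMSO) at 37 °C. Canonical exon-junction mRNA measured by probe-based RT-qPCR, normalized to GAPDH, GUSB or PPIA and DMSO (2^−ΔΔCt), converted to percent response over a fixed ΔCt window; IC50 from 4-parameter fit.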

MYB CJ mRNA = experiment: Gene panel canonical junction qPCR assay, MYB; conditions: Homo sapiens, larger gene panel, read-out: MYB IC50 (decrease in CJ mRNA levels)
Outline: as §2

HTT CJ mRNA = experiment: Gene panel canonical junction qPCR assay, HTT; conditions: Homo sapiens, larger gene panel, read-out: HTT IC50 (decrease in CJ mRNA levels)
Outline: as §2

Target C CJ mRNA = experiment: Gene panel canonical junction qPCR assay, Target C; conditions: Homo sapiens, larger gene panel, read-out: Target C IC50 (decrease in CJ mRNA levels)
Outline: as §2

Structure (SMILES) | pIC50 (HTT mRNA) | AC50 (HTT mRNA) | pIC50 (MYB mRNA) | AC50 (MYB mRNA) | pIC50 (SMN2 CJ mRNA) | pIC50 (MYB CJ mRNA) | pIC50 (HTT CJ mRNA) | pIC50 (Target C CJ mRNA)
COc1cc(-c2cc3ncn(C4CCNCC4)c(=O)c3s2)ccn1 [Compound 263] | 5.00 to 6.00 | 1000 to 10000 nM | 5.00 to 6.00 | 1000 to 10000 nM | 5.00 to 6.00 | 5.00 to 6.00 | 5.00 to 6.00 | 5.00 to 6.00
Cc1cn2cc(-c3cc4ncn(C5CCNCC5)c(=O)c4s3)ncc2n1 [Compound 264] | 5.00 to 6.00 | 1000 to 10000 nM | 5.00 to 6.00 | 1000 to 10000 nM | 6.00 to 7.00 | 5.00 to 6.00 | 5.00 to 6.00 | 5.00 to 6.00
Cc1cn2cc(-c3cc4ncn(C5CCN(C)CC5)c(=O)c4s3)cc(F)c2n1 [Compound 265, 6-{8-fluoro-2-methylimidazo[1,2-a]pyridin-6-yl}-3-(1-methylpiperidin-4-yl)thieno[3,2-d]pyrimidin-4-one] | 6.00 to 7.00 | 100 to 1000 nM | 6.00 to 7.00 | 100 to 1000 nM | > 7.00 | 6.00 to 7.00 | 6.00 to 7.00 | 6.00 to 7.00
Cc1cn2nc(-c3nc4sc(N5CCNCC5)nc4c(=O)[nH]3)cc2c(C)n1 [Compound 267] | 6.00 to 7.00 | 100 to 1000 nM | 6.00 to 7.00 | 100 to 1000 nM | 6.00 to 7.00 | 6.00 to 7.00 | 6.00 to 7.00 | 6.00 to 7.00
Cc1cn2nc(-c3nc4sc(N5CCN(C)CC5)nc4c(=O)[nH]3)cc2c(C)n1 [Compound 268] | < 5.00 | > 10000 nM | < 5.00 | 1000 to 10000 nM | 6.00 to 7.00 | < 5.00 | < 5.00 | < 5.00
Cc1cn2cc(-c3cc4ncn(N5CCNCC5)c(=O)c4s3)cc(F)c2n1 [Compound 269, 6-{8-fluoro-2-methylimidazo[1,2-a]pyridin-6-yl}-3-(piperazin-1-yl)thieno[3,2-d]pyrimidin-4-one] | 6.00 to 7.00 | 100 to 1000 nM | 6.00 to 7.00 | 100 to 1000 nM | > 7.00 | 6.00 to 7.00 | 6.00 to 7.00 | 5.00 to 6.00
Cc1cn2cc(-c3cc4ncn(C5CCNC5)c(=O)c4s3)cc(F)c2n1 (centres unmarked) [Compound 270, 6-{8-fluoro-2-methylimidazo[1,2-a]pyridin-6-yl}-3-(pyrrolidin-3-yl)thieno[3,2-d]pyrimidin-4-one] | 6.00 to 7.00 | 100 to 1000 nM | 6.00 to 7.00 | 100 to 1000 nM | 6.00 to 7.00 | 6.00 to 7.00 | 6.00 to 7.00 | 6.00 to 7.00
Cc1nc(-c2cc3ncn(C4CCNCC4)c(=O)c3s2)cc2cn(C)nc12 [Compound 271] | 5.00 to 6.00 | 1000 to 10000 nM | 6.00 to 7.00 | 1000 to 10000 nM | > 7.00 | 6.00 to 7.00 | 5.00 to 6.00 | 5.00 to 6.00
Cc1cn2cc(-c3cc4ncn(C5CCNCC5(F)F)c(=O)c4s3)cc(F)c2n1 (centres unmarked) [Compound 274, 3-(3,3-difluoropiperidin-4-yl)-6-{8-fluoro-2-methylimidazo[1,2-a]pyridin-6-yl}thieno[3,2-d]pyrimidin-4-one] | < 5.00 | 1000 to 10000 nM | < 5.00 | > 10000 nM | 5.00 to 6.00 | < 5.00 | < 5.00 | < 5.00
Cc1cn2cc(-c3cc4ncn(C5CCCNCC5)c(=O)c4s3)cc(F)c2n1 (centres unmarked) [Compound 275, 3-(azepan-4-yl)-6-{8-fluoro-2-methylimidazo[1,2-a]pyridin-6-yl}thieno[3,2-d]pyrimidin-4-one] | 6.00 to 7.00 | 100 to 1000 nM | 6.00 to 7.00 | 100 to 1000 nM | > 7.00 | 6.00 to 7.00 | 6.00 to 7.00 | 6.00 to 7.00
